From patent US20080293070A1, “Markers for Memory T Cells and Uses Thereof” (priority 2005, published 2008)

How the values were obtained:
Format in all cases: cell-based, human
pFOXO3a (S253) = experiment: FOXO3a phosphorylation (S253) in CD4+ T cells after kinase inhibitors, Western blot; settings: purified CD4+ T cells pre-treated 1 hour; AKT inhibitor 10 μM, Wedelolactone 100 μM
Protocol: (§1) FIG. 7. AKT and IKK mediate FOXO3a phosphorylation and survival in CD4^+ T cell. (A) Regulation of FOXO3a phosphorylation. Purified CD4^+ T Cells were pre-treated for 1 hour with kinase inhibitors (AKT-VI, AKT inhibitor: 10 μM; STO-609, CamKK inhibitor: 5 μg/ml; Wedelolactone, IKK inhibitor: 100 μM and U0126, MEK1/2 inhibitor: 50 μM). pFoxo3a (S253) was assessed. The results are representative of two independent experiments. (B) CD4^+ T cell susceptibility to apoptosis induced upon treatment with specific kinase inhibitors. CD4^+ T cells were cultured in the presence of kinase inhibitors for 24 hrs (U0126:100 μM; STO-609:10 μg/ml; Wedelolactone and AKT-IV as indicated). After 24 h, the proportion of Annexin-V^+, propidium iodide (PI)^+ cells was quantified by flow cytometry. […] Cells were analyzed by Western Blot (WB) using Bim specific antibodies. […] The levels of pAKT were assessed by flow cytometry in TCM- and TEM-gated subsets. The results are represented as the mean fold increase ±SD, calculated as (MFI of stimulated cells/MFI of un-stimulated cells) of five independent experiments. Values of p (determined by two-tailed T-test) are shown.
(§2) Western Blotting analysis. […] HRP activity was detected using an enhanced chemiluminescence detection procedure (ECL-plus detection system, Amersham Biosciences). […] Protein expression levels were expressed as a percentage of the highest signals obtained. […]

CD4+ T cells = experiment: Apoptosis of CD4+ T cells cultured with kinase inhibitors, Annexin-V flow cytometry; settings: for proportion of Annexin-V+ cells: CD4+ T cells, 24 hrs with inhibitor; for inhibitor treatment concentration: concentration used to treat sorted TCM and TEM, what the IC50 refers to is not stated
Protocol: FIG. 7. AKT and IKK mediate FOXO3a phosphorylation and survival in CD4^+ T cell. (A) Regulation of FOXO3a phosphorylation. Purified CD4^+ T Cells were pre-treated for 1 hour with kinase inhibitors (AKT-VI, AKT inhibitor: 10 μM; STO-609, CamKK inhibitor: 5 μg/ml; Wedelolactone, IKK inhibitor: 100 μM and U0126, MEK1/2 inhibitor: 50 μM). pFoxo3a (S253) was assessed. The results are representative of two independent experiments. (B) CD4^+ T cell susceptibility to apoptosis induced upon treatment with specific kinase inhibitors. CD4^+ T cells were cultured in the presence of kinase inhibitors for 24 hrs (U0126:100 μM; STO-609:10 μg/ml; Wedelolactone and AKT-IV as indicated). After 24 h, the proportion of Annexin-V^+, propidium iodide (PI)^+ cells was quantified by flow cytometry. The results are depicted as a percentage of apoptotic cells within the total population and are representative of two independent experiments. (C) Bim expression levels in response to AKT and IKK inhibitors. CD4^+ T cells were treated with AKT-IV (1.6 μM) or wedelolactone (100 μM) for 24 h. Cells were analyzed by Western Blot (WB) using Bim specific antibodies. (D and E) Regulation of AKT and IKK phosphorylation in 4^+ memory subsets. (D) pIKKαβ (S176/180) protein levels in ex-vivo sorted TCM and TEM. […] (E) PBMCs, from healthy donors, were treated with H2O2 (5 mM) or Ig-cross-linked CD28 (2 Hg/ml) for 15 min at 37° C. and labeled with CD4, CD27, CD45RA and pAKT (S473) specific antibodies. The levels of pAKT were assessed by flow cytometry in TCM- and TEM-gated subsets. The results are represented as the mean fold increase ±SD, calculated as (MFI of stimulated cells/MFI of un-stimulated cells) of five independent experiments. Values of p (determined by two-tailed T-test) are shown.
(§3) Induction and quantification of apoptosis. Apoptotic cells were detected using annexin-V labeling according to the manufacturer's protocol (Biosource). The fluorescence signals were measured by flow cytometry using a BD LSRI flow cytometer (BD-Biosciences). Approximately 50,000-gated events were collected for each sample.
To confirm the importance of the phosphorylation of FOXO3a in memory T-cell survival, purified CD4^+ T cells were treated with different kinase-inhibitors, and apoptosis was assessed by flow cytometry using Annexin-V labeling. […] Moreover, we observed a significant upregulation of the levels of the pro-apoptotic molecule Bim, known to be a FOXO3a target, in cells treated with AKT or IKK inhibitors (three and eightfold respectively) (FIG. 7C). […] None of the other kinase-inhibitors tested induced apoptosis in CD4^+ T cells (FIG. 7B) even when used at much higher concentrations (data not shown). […]

Bim = Bim expression in CD4+ T cells in response to AKT and IKK inhibitors, Western blot; settings: 24 h, AKT-IV 1.6 μM, wedelolactone 100 μM
Protocol: as §1, §2

FasL = FasL expression in CD4+ T cells after AKT and IKK inhibitors, Western blot or flow cytometry; settings: data not shown
TCM = experiment: Apoptosis of sorted TCM induced by kinase inhibitors, Annexin-V labeling; settings: 24 h, AKT-IV 1.6 μM, wedelolactone 100 μM, n=2
Protocol: (§4) FIG. 8. Susceptibility of TCM and TEM to apoptosis induced by kinase inhibitors. Sorted TCM and TEM were cultured with or without AKT and IKK inhibitors as indicated. After 24 h, the percentage of apoptotic cells was quantified by Annexin-V-FITC labeling. Upper panel depict Results from a representative individual. Histogram plots show the percent of Annexin-V positive cells in TCM and TEM cells following a 24 h exposure to AKT or IKK-inhibitors. The dashed lines correspond to untreated cells while the plain lines correspond to cells treated with kinase-inhibitors. […] The fold increase of apoptosis is calculated as % of apoptotic cells in treated cells divided by the % of apoptotic cells in untreated cells.
as §3
(§5) After 24 h of treatment, the proportion of apoptotic cells was quantified using Annexin-V labeling (FIG. 8, top panel).

TEM = settings: sorted TEM, 24 h; AKT-IV 1.6 μM, wedelolactone 100 μM; n=2
Protocol: as §4, §3, §5

pAKT (S473) = experiment: AKT phosphorylation (S473) in TCM- and TEM-gated PBMCs, PhosFlow; settings: H2O2 5 mM, 15 min; TCM vs TEM
Protocol: as §1, with “shown. […]” for “shown.”
To assess the importance of AKT and IKK in the survival of memory T cells, we evaluated the expression of the phosphorylated forms of these proteins in TCM and TEM subsets. […]

pSTAT5a (Y694) = experiment: STAT5a phosphorylation in TCM and TEM in response to IL-2 or IL-7, flow cytometry
Protocol: (B, C and D) PBMCs from healthy donors were treated with IL-2 (100 U/ml) or IL-7 (10 ng/ml) for 15 min at 37° C. Cells were then labeled with Abs to CD4, CD27, CCR7, CD45RA and pSTAT5a. (B) Representative example of pSTAT5a expression levels. TCM-gated cells are represented in light grey and TEM-gated cells are represented in black. (C) Mean Fluorescence Intensity (MFI) of pSTAT5a level of expression measured in response to IL-2 or IL-7, in TCM and TEM (n=4). Mean pSTAT5a signal values are represented by black bars. P-values (determined by a two-tailed T-test) are shown (D) Expression level of CD127, CD25 and CD132 in ex-vivo TCM and TEM.
Flow cytometry analysis of STAT5a and AKT phosphorylation status. PBMCs were resuspended at 20 millions/ml in RPMI and incubated for 30 min in the presence of CCR7-FITC abs (20 μl/million cells) at room temperature. The cells were then washed and re-suspended at a cell concentration of 5 millions per ml in PBS and stimulated for 15 min at 37° C. in the presence of IL-2 (100 U/ml) or IL-7 (10 ng/ml). Following stimulation, the cells were fixed for 10 min at 37 degrees using cytofix buffer (BD Biosciences), pelleted and then permeabilized in PERM-III buffer (BD Biosciences) for 30 min on ice. […]
The phosphorylated form of STAT5a (Y694) (pSTAT5a) was quantified by flow cytometry.

[1] = test system: pFOXO3a (S253, S315 and T32); experiment: FOXO3a phosphorylation in CD4+ T cells in response to TCR and cytokine engagement, Western blot; settings: 30 min, IL-7 10 ng/ml, IL-2 100 U/ml
Protocol: (A) CD4^+ T cells were cultured in the presence of anti-CD3 (2 μg/ml), anti-CD28 (2 μg/ml), anti-CD3+CD28, IL-2 (100 U/ml), IL-7 (10 ng/ml), IFN-γ (50 μg/ml) or PMA (50 ng/ml) for 15 min and analyzed by Western Blot for pFOXO3a (S315 and S253) expression levels. The results are representative of two independent experiments. (B) CD4^+ T cells were cultured in the presence of anti-CD3/anti-CD28, IL-2 (100 U/ml), IL-7 (10 ng/ml) for 30 min and analyzed by Western Blot for pFOXO3a (T32) expression levels.
Western Blotting analysis. […] Cells were washed twice with PBS and re-suspended in lysis buffer containing 50 mM NaF and 1 mM sodium pyrophosphate. Proteins from total cell extracts (10 μg) were separated on SDS-PAGE and electrotransfered onto PVDF membranes (Roche, Indianapolis, Ind.). Membranes were incubated overnight at 4° C. with specific antibodies as described in the figure legends. Detection of the immune complexes was performed using horseradish peroxidase (HRP)-conjugated goat anti-mouse (1:2500) or goat anti-rabbit IgG antibodies (1:3000). HRP activity was detected using an enhanced chemiluminescence detection procedure (ECL-plus detection system, Amersham Biosciences). Membranes were subsequently stripped and restained with an anti-actin Abs (1:10000). […] Protein expression levels were expressed as a percentage of the highest signals obtained.

COc1cc(O)c2c(c1)oc(=O)c1c3cc(O)c(O)cc3oc21 [Wedelolactone]
expression levels of pFOXO3a (S253), fold lower as compared to untreated cells (pFOXO3a (S253)): 4.5 fold | proportion of Annexin-V+ cells (CD4+ T cells): increased in a dose-dependant fashion | inhibitor treatment concentration (CD4+ T cells; Homo sapiens, CD4+ T): 100 µM | upregulation of Bim levels (Bim): eightfold | levels of FasL expression (FasL): did not change | increase in Annexin-V+ cells relative to untreated cells (TCM): eightfold | increase in Annexin-V+ cells relative to untreated cells (TEM): twofold

CC[n+]1c(/C=C/N(C)c2ccccc2)n(-c2ccccc2)c2ccc(-c3nc4ccccc4s3)cc21.[I-] [AKT-IV]
expression levels of pFOXO3a (S253), fold lower as compared to untreated cells (pFOXO3a (S253)): eightfold | proportion of Annexin-V+ cells (CD4+ T cells): increased in a dose-dependant fashion | inhibitor treatment concentration (CD4+ T cells): 1.6 µM | upregulation of Bim levels (Bim): three | levels of FasL expression (FasL): did not change

OO [H2O2]
induction of pAKT (S473) (pAKT (S473)): higher in TCM than TEM

B1: IL-7: cytokine purchased from R&D systems (protein, UniProt P13232 26-177, looked up)
Interleukin-7: DCDIEGKDGKQYESVLMVSIDQLLDSMKEIGSNCLNNEFNFFKRHICDANKEGMFLFRAARKLRQFLKMNSTGDFDLHLLKVSEGTTILLNCTGQVKGRKPAALGEAQPTKSLEENKSLKEQKKLNDLCFLKRLLQEIKTCWNKILMGTKEH
proportion of cells that up-regulated pSTAT5a, higher in TCM as compared to TEM (pSTAT5a (Y694); IL-7 10 ng/ml, 15 min, p<0.002): 30%±6.5 | pSTAT5a response (pSTAT5a (Y694); both TCM and TEM, brief IL-7 treatment): upregulated pSTAT5a | levels of pFOXO3a at T32 [1]: threefold
